# Measurements taken from patent US20150359798A1, “PIPERAZINYL DERIVATIVE REDUCES HIGH-FAT DIET-INDUCED ACCUMULATION OF FAT IN THE LIVERS, […]” (priority 2011, published 2015).
# Assays:
# mice fed with HFD = test: HFD-fed mice, 8 weeks, gavage: serum/liver lipids, body weight, food intake; format: in vivo; conditions: for HDL chol. / LDL chol. / TG / Tot. chol.: Table 2, mice
# Procedure: In the 8 week experiment, C57BL/6J male mice (21-22 g), after fasting, were fed a HFD as a model of hyperlipidemia for 8 weeks. During the 2 month experiments, mice fasted for one night before the experiment was changed from a standard diet (STD) to a HFD and then the mice were randomly divided into 5 groups, including 2 control and 3 treatment groups. Six mice were used in each group. […] Liver from the protection group supplemented with KMUP-1 HCl (1 mg/kg/day) were used to determine the HMG CoA reductase expression.
# Within 2 months, the 3 day food intake average for each animal was measured. The weight gain and plasma lipid levels of each group were determined and compared to the non-treatment control group. Mouse blood was collected during the daytime by cardiac puncture followed by centrifugation at 90 g (Benchtop Centrifuge, U.S.A.) to separate the serum, and frozen at −80° C., for biochemical analysis using a Hitachi Clinical Analyzer 7070 (Hitachi High-Technologies Co. Tokyo, Japan). Agents used in the assays were Obtained from Merck & Co. (Kenilworth, N.J., U.S.A.). Triglyceride (TG), total cholesterol, HDL cholesterol and LDL cholesterol in mouse serum were measured by methods used in the clinic. To measure the hepatic TG, isolated liver were cut into small chips.
# LDLRs = test: IHC staining of LDLRs in liver; format: in vivo, mice; conditions: drinking KMUP-1 HCl; HFD; protection and treatment groups
# Procedure: Liver tissues were fixed in 10% buffered formalin for 24 hours and then embedded in paraffin. The paraffin-embedded liver tissue sections (4 μm thick) were first heat immobilised and deparaffinised using xylene and then rehydrated in a graded series of ethanol, followed by a final wash in distilled water. Finally, tissue sections were stained with PAS and Mayer's hematoxylin solution.
# For IHC of hepatic LDLRs in the animals that drink the KMUP-1 HCl (2.5 mg/200 mL for 1-14 weeks or 8-14 weeks), antigen retrieval of de-paraffinated sections was performed in Dako target retrieval solution, pH 9.0, in a vegetable steamer followed by the quenching of endogenous peroxidase activity with 3.0% H2O2 in methanol. Sections were then incubated with specific primary antibodies overnight at 4° C. in a humidified chamber. The sections were then examined using a DAKO REAL EnVision™ Detection System kit (DAKO, Carpinteria, Calif., U.S.A.) and counterstained with hematoxylin. Images were obtained through a Nikon Eclipse TE200-S microscope.
# HMG CoA reductase = HMG CoA reductase expression in liver of HFD mice (8 weeks); format: in vivo; conditions: KMUP-1 HCl 2.5, 5 mg/kg, simvastatin 5 mg/kg
# Procedure: In the 8 week experiment, C57BL/6J male mice (21-22 g), after fasting, were fed a HFD as a model of hyperlipidemia for 8 weeks. During the 2 month experiments, mice fasted for one night before the experiment was changed from a standard diet (STD) to a HFD and then the mice were randomly divided into 5 groups, including 2 control and 3 treatment groups. Six mice were used in each group. […]
# The obtained protein extract was boiled to a ratio of 4:1 with a sample buffer (Tris 100 mM, pH 6.8, glycerol 20%, SDS 4% and bromophenol blue 0.2%). Electrophoresis was performed using 10% SDS-polyacrylamide gel (1 hour, 100 V, 40 mA, 20 μg protein per lane).
# The blot was then incubated with anti-mouse or anti-goat IgG linked to alkaline phosphatase (1:1000) for 1 hour.
# eNOS = test: Table 4 eNOS (% of control); format: cell-based; conditions: control group = 100 (%)
# ROCKII = test: Table 4 ROCKII (% of control); format: cell-based; conditions: control group = 100 (%)
# mice fed a HFD = test: HFD-fed mice, 14-week experiment: body weight, liver morphology, H&E, oil globulets; format: in vivo
# Procedure: In the 14-week experiment, mice were fed a HFD from week 1 to week 14. During the 3 month experiments, KMUP-1 HCl (2.5 mg) was added to 200 ml tap water and) and drink for 14 weeks or for the last 6 weeks on mice or obese mice fed HFD, separately. 5 mice had free access to drinking water from week 1 to week 14 (protective group) or from week 8 to week 14 (treatment group). Tap water was used to normalize mineral nutrition (Scheme A).
# The diameter of the white bar in the photograph was standardized at 100 μM for measuring the specific diameter of oil globulets in a whole liver slice, observed by microscope, with the aid of Powerpoint PC computer software (Microsoft®, USA) and printed out by a Hewlett-Packard® printer (USA). An increase in oil globulet diameter and cell number indicated increasing liver steatosis, i.e. steaotohepatitis. In contrast, decrease in diameter and the number of fat cells indicated the inhibition of steaotohepatitis. […] Hematoxylin-eosin (H&E) and […] staining of liver were used to assess oil globulet numbers under a microscope.
# Mice liver and epididymal fat pads were cut and soaked in formalin, dehydrated through graded alcohols and embedded in paraffin. Specimens of liver tissues and epididymal fat pads fixed with formalin (4%) were embedded in paraffin for one hour at 4° C., cut into […] sections, and subjected to H&E staining before examination by light microscope. In heart tissues, the 4-μm-thick paraffin sections were cut from paraffin-embedded tissue blocks and de-paraffinized by immersion in xylene and rehydrated. The slices were then dyed with H&E. After gently rinsing with water, each slide was dehydrated through graded alcohols and finally soaked in xylene twice.
# Hematoxylin-eosin (H&E) and IHC staining of liver were used to assess oil globulet numbers under a microscope. A 100 μM white bar was used to determine oil globule sizes in the liver. Oil globulets in a cell were counted from larger to smaller until size limitations were reached. Increases of oil globulet diameter and number indicated increasing liver steatosis. In contrast, a decrease in oil globulet diameters and numbers could indicate the inhibition of liver steatosis. Oil globulets were measured using a Nikon Eclipse TE200-S microscope, aided by Powerpoint computer software (Microsoft®) and printed by a HP® printer to measure the diameter and number of oil globulets on paper. Counting: of oil globules was performed from larger to smaller ones until the observation reached its limit.
# PDE-5A = test: Table 4 PDE-5A (% of control); format: cell-based; conditions: control group = 100 (%)
structure (smiles),measurement,setting,value
"Cl.Cn1c(=O)c2c(ncn2CCN2CCN(c3ccccc3Cl)CC2)n(C)c1=O [KMUP-1 HCl, 7-[2-[4-(2-chlorophenyl)piperazinyl]ethyl]-1,3-dimethylxanthine HCl complex]",body-weight gain,"mice fed with HFD; KMUP-1 HCl 2.5, 5 mg/kg p.o., simvastatin 5 mg/kg p.o., compared to control HFD group, p<0.05",reduced
same,HDL chol.,mice fed with HFD; dose 2.5 mg/kg,103.6 ± 4.2 mg/dL
same,LDL chol.,mice fed with HFD; dose 2.5 mg/kg,14.2 ± 1.4 mg/dL
same,TG,mice fed with HFD; dose 2.5 mg/kg,74.5 ± 5.1 mg/dL
same,Tot. chol.,mice fed with HFD; dose 2.5 mg/kg,133 ± 5.1 mg/dL
same,HDL chol.,mice fed with HFD; dose 5 mg/kg,118.3 ± 5.7 mg/dL
same,LDL chol.,mice fed with HFD; dose 5 mg/kg,14.2 ± 2.2 mg/dL
same,TG,mice fed with HFD; dose 5 mg/kg,72.67 ± 4.7 mg/dL
same,Tot. chol.,mice fed with HFD; dose 5 mg/kg,125.5 ± 9.8 mg/dL
same,hepatic LDLRs (IHC),LDLRs,increased
same,HFD-induced downregulation of HMG-CoA reductase expression in liver,HMG CoA reductase,significantly reversed
same,eNOS,eNOS,155.16 ± 14.8%
same,ROCKII,ROCKII,42.5 ± 6.3%
same,body weight,"mice fed a HFD; drinking 2.5 mg/200 ml water, protection and treatment groups",decreased
same,fatty liver (gross morphology),"mice fed a HFD; protective group, more prominent than in the treatment group",markedly decreased
same,PDE-5A,PDE-5A,64.5 ± 4.5%
